Source: the NIST ThermoML archive (doi:10.1016/j.fluid.2014.09.014)

Experiment: refractive index (other wavelength) (dimensionless); xn = mol fraction of the nth substance listed
Details: 101 kPa, Liquid, Standard Abbe refractometry

CC(C)OC(C)C [diisopropyl ether] + CO
Details	refractive index
313.15 K, Wavelength=644 nm, x2 = 0.9527	1.32574
313.15 K, Wavelength=644 nm, x2 = 0.9773	1.32248
313.15 K, Wavelength=644 nm, x2 = 0.989	1.3213
313.15 K, Wavelength=644 nm, x2 = 0.9964	1.32034
313.15 K, Wavelength=706.5 nm, x2 = 0	1.35401
313.15 K, Wavelength=706.5 nm, x2 = 0.0423	1.35395
313.15 K, Wavelength=706.5 nm, x2 = 0.0424	1.35398
313.15 K, Wavelength=706.5 nm, x2 = 0.082	1.35392
313.15 K, Wavelength=706.5 nm, x2 = 0.0822	1.35411
313.15 K, Wavelength=706.5 nm, x2 = 0.1171	1.35398
313.15 K, Wavelength=706.5 nm, x2 = 0.1271	1.35399
313.15 K, Wavelength=706.5 nm, x2 = 0.1827	1.35378
313.15 K, Wavelength=706.5 nm, x2 = 0.2162	1.35364
313.15 K, Wavelength=706.5 nm, x2 = 0.251	1.35322
313.15 K, Wavelength=706.5 nm, x2 = 0.3298	1.35329
313.15 K, Wavelength=706.5 nm, x2 = 0.3577	1.35251
313.15 K, Wavelength=706.5 nm, x2 = 0.4497	1.35124
313.15 K, Wavelength=706.5 nm, x2 = 0.4525	1.35165
313.15 K, Wavelength=706.5 nm, x2 = 0.522	1.34954
313.15 K, Wavelength=706.5 nm, x2 = 0.609	1.34648
313.15 K, Wavelength=706.5 nm, x2 = 0.6529	1.34501
313.15 K, Wavelength=706.5 nm, x2 = 0.7504	1.34121
313.15 K, Wavelength=706.5 nm, x2 = 0.804	1.33693
313.15 K, Wavelength=706.5 nm, x2 = 0.807	1.33702
313.15 K, Wavelength=706.5 nm, x2 = 0.8727	1.33354
313.15 K, Wavelength=706.5 nm, x2 = 0.9233	1.32582
313.15 K, Wavelength=706.5 nm, x2 = 0.9253	1.32745
313.15 K, Wavelength=706.5 nm, x2 = 0.9527	1.32454
313.15 K, Wavelength=706.5 nm, x2 = 0.9773	1.32131
313.15 K, Wavelength=706.5 nm, x2 = 0.989	1.32103
313.15 K, Wavelength=706.5 nm, x2 = 0.9964	1.31919
318.15 K, Wavelength=40.47 nm, x2 = 0	1.36447
318.15 K, Wavelength=40.47 nm, x2 = 0.0423	1.36444
318.15 K, Wavelength=40.47 nm, x2 = 0.0424	1.3644
318.15 K, Wavelength=40.47 nm, x2 = 0.082	1.36442
318.15 K, Wavelength=40.47 nm, x2 = 0.0822	1.36413
318.15 K, Wavelength=40.47 nm, x2 = 0.1171	1.36444
318.15 K, Wavelength=40.47 nm, x2 = 0.1271	1.36445
318.15 K, Wavelength=40.47 nm, x2 = 0.1827	1.36427
318.15 K, Wavelength=40.47 nm, x2 = 0.2162	1.36415
318.15 K, Wavelength=40.47 nm, x2 = 0.251	1.3636
318.15 K, Wavelength=40.47 nm, x2 = 0.3298	1.36408
318.15 K, Wavelength=40.47 nm, x2 = 0.3577	1.36296
318.15 K, Wavelength=40.47 nm, x2 = 0.4497	1.36174
318.15 K, Wavelength=40.47 nm, x2 = 0.4525	1.36248
318.15 K, Wavelength=40.47 nm, x2 = 0.522	1.35999
318.15 K, Wavelength=40.47 nm, x2 = 0.5543	1.35901
318.15 K, Wavelength=40.47 nm, x2 = 0.609	1.35666
318.15 K, Wavelength=40.47 nm, x2 = 0.6529	1.35514
318.15 K, Wavelength=40.47 nm, x2 = 0.7504	1.35095
318.15 K, Wavelength=40.47 nm, x2 = 0.804	1.34473
318.15 K, Wavelength=40.47 nm, x2 = 0.807	1.3465
318.15 K, Wavelength=40.47 nm, x2 = 0.8727	1.34338
318.15 K, Wavelength=40.47 nm, x2 = 0.9233	1.33515
318.15 K, Wavelength=40.47 nm, x2 = 0.9253	1.33682
318.15 K, Wavelength=40.47 nm, x2 = 0.9527	1.33369
318.15 K, Wavelength=40.47 nm, x2 = 0.9773	1.33062
318.15 K, Wavelength=40.47 nm, x2 = 0.989	1.32932
318.15 K, Wavelength=40.47 nm, x2 = 0.9964	1.32844
318.15 K, Wavelength=435.8 nm, x2 = 0	1.36157
318.15 K, Wavelength=435.8 nm, x2 = 0.0423	1.36155
318.15 K, Wavelength=435.8 nm, x2 = 0.0424	1.36152
318.15 K, Wavelength=435.8 nm, x2 = 0.082	1.36153
318.15 K, Wavelength=435.8 nm, x2 = 0.0822	1.36167
318.15 K, Wavelength=435.8 nm, x2 = 0.1171	1.36159
318.15 K, Wavelength=435.8 nm, x2 = 0.1271	1.36158
318.15 K, Wavelength=435.8 nm, x2 = 0.1827	1.3614
318.15 K, Wavelength=435.8 nm, x2 = 0.2162	1.36132
318.15 K, Wavelength=435.8 nm, x2 = 0.251	1.36074
318.15 K, Wavelength=435.8 nm, x2 = 0.3298	1.36122
318.15 K, Wavelength=435.8 nm, x2 = 0.3577	1.36012
318.15 K, Wavelength=435.8 nm, x2 = 0.4497	1.35893
318.15 K, Wavelength=435.8 nm, x2 = 0.4525	1.35967
318.15 K, Wavelength=435.8 nm, x2 = 0.522	1.3572
318.15 K, Wavelength=435.8 nm, x2 = 0.5543	1.35624
318.15 K, Wavelength=435.8 nm, x2 = 0.609	1.35398
318.15 K, Wavelength=435.8 nm, x2 = 0.6529	1.35244
318.15 K, Wavelength=435.8 nm, x2 = 0.7504	1.34832
318.15 K, Wavelength=435.8 nm, x2 = 0.804	1.34218
318.15 K, Wavelength=435.8 nm, x2 = 0.807	1.34393
318.15 K, Wavelength=435.8 nm, x2 = 0.8727	1.34082
318.15 K, Wavelength=435.8 nm, x2 = 0.9233	1.33279
318.15 K, Wavelength=435.8 nm, x2 = 0.9253	1.33442
318.15 K, Wavelength=435.8 nm, x2 = 0.9527	1.33136
318.15 K, Wavelength=435.8 nm, x2 = 0.9773	1.32834
318.15 K, Wavelength=435.8 nm, x2 = 0.989	1.32708
318.15 K, Wavelength=435.8 nm, x2 = 0.9964	1.32617
318.15 K, Wavelength=486.1 nm, x2 = 0	1.35832
318.15 K, Wavelength=486.1 nm, x2 = 0.0423	1.35829
318.15 K, Wavelength=486.1 nm, x2 = 0.0424	1.35828
318.15 K, Wavelength=486.1 nm, x2 = 0.082	1.35827
318.15 K, Wavelength=486.1 nm, x2 = 0.0822	1.35838
318.15 K, Wavelength=486.1 nm, x2 = 0.1171	1.35824
318.15 K, Wavelength=486.1 nm, x2 = 0.1271	1.35832
